Measured values from the CheMixHub viscosity set.
Where “and” joins values, the source holds several entries; their conditions need not be identical. Equal values may be shown once. ± gives the uncertainty stated by the source.

BrC(Br)Br
viscosity (298 K, 101.3 kPa): 1.873 ± 0.025 mPa·s
viscosity (298.15 K, 101.3 kPa): 1.912 ± 0.024 mPa·s
viscosity (298.15 K, 101.33 kPa): 1.912 ± 0.024 mPa·s and 1.977 ± 0.024 mPa·s
viscosity (303.15 K, 101 kPa): 1.843 ± 0.017 mPa·s and 1.861 ± 0.017 mPa·s
viscosity (303.15 K, 101.3 kPa): 1.79 ± 0.023 mPa·s
viscosity (303.15 K, 101.33 kPa): 1.79 ± 0.023 mPa·s and 1.857 ± 0.023 mPa·s
viscosity (308.15 K, 101 kPa): 1.729 ± 0.016 mPa·s and 1.746 ± 0.016 mPa·s
viscosity (308.15 K, 101.3 kPa): 1.684 ± 0.021 mPa·s
viscosity (308.15 K, 101.33 kPa): 1.684 ± 0.021 mPa·s and 1.733 ± 0.021 mPa·s
viscosity (313.15 K, 101 kPa): 1.623 ± 0.015 mPa·s and 1.641 ± 0.015 mPa·s
viscosity (318 K, 101.33 kPa): 1.476 ± 0.04 mPa·s

BrC(Br)C(Br)Br
viscosity (298.08 K, 101 kPa): 9.687 ± 0.25 mPa·s
viscosity (308.11 K, 101 kPa): 7.313 ± 0.19 mPa·s
viscosity (313.11 K, 101 kPa): 6.406 ± 0.16 mPa·s

C=Cc1ccccc1
viscosity (298.15 K, 101 kPa): 1.07 ± 0.013 mPa·s and 0.695 ± 0.009 mPa·s
viscosity (308.15 K, 101 kPa): 0.618 ± 0.009 mPa·s
viscosity (313.15 K, 101 kPa): 0.573 ± 0.008 mPa·s

CC#N
viscosity (293.15 K, 101.32 kPa): 0.3579 ± 0.0035 mPa·s
viscosity (293.15 K, 101.33 kPa): 0.408 ± 0.005 mPa·s and 0.383 ± 0.0037 mPa·s
viscosity (297.92 K, 101 kPa): 0.3538 ± 0.0075 mPa·s
viscosity (298.15 K, 100 kPa): 0.3479 ± 0.035 mPa·s and 0.3462 ± 0.01 mPa·s and 0.338 ± 0.02 mPa·s
viscosity (298.15 K, 101.3 kPa): 0.335 ± 0.021 mPa·s and 0.346 ± 0.014 mPa·s
viscosity (298.15 K, 101.33 kPa): 0.39 ± 0.003 mPa·s and 0.361 ± 0.011 mPa·s and 0.345 ± 0.003 mPa·s
viscosity (301.67 K, 101 kPa): 0.3418 ± 0.0073 mPa·s
viscosity (303 K, 100 kPa): 0.3485 ± 0.035 mPa·s
viscosity (303.15 K, 100 kPa): 0.3332 ± 0.034 mPa·s and 0.3307 ± 0.01 mPa·s
viscosity (303.15 K, 101.3 kPa): 0.326 ± 0.01 mPa·s
viscosity (303.15 K, 101.33 kPa): 0.371 ± 0.005 mPa·s and 0.333 ± 0.003 mPa·s
viscosity (303.61 K, 101 kPa): 0.3353 ± 0.0071 mPa·s
viscosity (305.61 K, 101 kPa): 0.3294 ± 0.007 mPa·s
viscosity (308 K, 100 kPa): 0.3285 ± 0.033 mPa·s
viscosity (308 K, 101 kPa): 0.3205 ± 0.04 mPa·s
viscosity (308.15 K, 100 kPa): 0.3196 ± 0.032 mPa·s and 0.3165 ± 0.01 mPa·s
viscosity (308.15 K, 101.3 kPa): 0.314 ± 0.1 mPa·s and 0.306 ± 0.01 mPa·s
viscosity (308.15 K, 101.33 kPa): 0.319 ± 0.003 mPa·s
viscosity (308.76 K, 101 kPa): 0.3201 ± 0.0068 mPa·s
viscosity (311.67 K, 101 kPa): 0.3112 ± 0.0067 mPa·s
viscosity (313 K, 100 kPa): 0.3102 ± 0.031 mPa·s
viscosity (313.15 K, 100 kPa): 0.3071 ± 0.031 mPa·s and 0.298 ± 0.018 mPa·s
viscosity (313.15 K, 101.3 kPa): 0.291 ± 0.009 mPa·s
viscosity (313.15 K, 101.32 kPa): 0.2974 ± 0.0031 mPa·s
viscosity (313.15 K, 101.33 kPa): 0.337 ± 0.005 mPa·s
viscosity (318 K, 101 kPa): 0.2908 ± 0.04 mPa·s
viscosity (323.15 K, 100 kPa): 0.2849 ± 0.029 mPa·s and 0.2624 ± 0.053 mPa·s
viscosity (323.15 K, 101.32 kPa): 0.2729 ± 0.0029 mPa·s
viscosity (323.15 K, 101.33 kPa): 0.309 ± 0.005 mPa·s

CC(=O)c1ccc(Cl)cc1
viscosity (303.15 K, 100 kPa): 2.353 ± 0.028 mPa·s
viscosity (303.15 K, 101 kPa): 2.353 ± 0.028 mPa·s

CC(C)(C)N
viscosity (298 K, 101 kPa): 0.434 ± 0.011 mPa·s
viscosity (298.15 K, 101 kPa): 0.4394 ± 0.0041 mPa·s and 0.439 ± 0.004 mPa·s
viscosity (298.15 K, 101.33 kPa): 0.4394 ± 0.0055 mPa·s
viscosity (303 K, 101 kPa): 0.403 ± 0.011 mPa·s
viscosity (303.15 K, 101 kPa): 0.4363 ± 0.0039 mPa·s and 0.4443 ± 0.0039 mPa·s
viscosity (303.15 K, 101.33 kPa): 0.4088 ± 0.0052 mPa·s
viscosity (308 K, 101 kPa): 0.375 ± 0.011 mPa·s
viscosity (308.15 K, 101 kPa): 0.4126 ± 0.043 mPa·s and 0.4126 ± 0.0057 mPa·s
viscosity (308.15 K, 101.33 kPa): 0.3803 ± 0.0049 mPa·s
viscosity (313.15 K, 101.33 kPa): 0.3558 ± 0.0046 mPa·s

NCCOCCO
viscosity (298.15 K, 101.33 kPa): 26.66 ± 0.17 mPa·s
viscosity (313.15 K, 101.33 kPa): 13.43 ± 0.11 mPa·s
viscosity (323.15 K, 101.33 kPa): 9.155 ± 0.086 mPa·s

O=S(=O)([N-]S(=O)(=O)C(F)(F)F)C(F)(F)F.OCCNCCO.[Li+]
viscosity (313.15 K, 101 kPa): 1775 ± 430 mPa·s
viscosity (318.15 K, 101 kPa): 1235 ± 270 mPa·s
viscosity (323.15 K, 101 kPa): 895 ± 170 mPa·s
